Results: patent publication US20030186352A1, “Apicomplexan chorismate synthase sequences and an inhibitor of the shikimate pathway” (priority 1998, published 2003)
Converted amounts (≈) assume the structure as drawn. Like-named read-outs stand apart in the source and are kept apart here.

Tests used:
[1] = test system: W2 clone of Plasmodium falciparum; assay: P. falciparum in vitro growth assay (Milhous et al.), W2 clone; assay type: cell-based; conditions: for IC50 / IC90: Plasmodium falciparum
[2] = test system: D6 clone of Plasmodium falciparum; assay: P. falciparum in vitro growth assay (Milhous et al.), D6 clone; assay type: cell-based; conditions: for IC50 / IC90: Plasmodium falciparum
[3] = test system: C. parvum; assay: C. parvum infection of MDBKF5D2 cell monolayers, immunofluorescence assay at 48 hours; assay type: cell-based, Cryptosporidium parvum
Protocol: C. parvum oocysts at 50,000/well were incubated at 37° C. (8% CO2) on confluent MDBKF5D2 cell monolayers in 96 well microtiter plates with the following concentrations of each drug. […] The level of infection of each well was determined and analyzed by an immunofluorescence assay at 48 hours using an antibody to C. parvum sporozoites made in rabbits at a concentration of 0.1%. Fluorescein-conjugated goat anti-rabbit antibody was used at a concentration of 1%.
C. parvum oocysts at 50,000/well were incubated with each drug (PRM=paromomycin which is the positive control, NPMG, gabaculine, SHAM, 8-hydroxyquinoline) at 37° C. (8% carbon dioxide) on confluent MDBKF5D2 cell monolayers in 96 well microtiter plates. The level of infection of each well was determined and analyzed by an immunofluorescence assay at 48 hours using as an antibody C. parvum sporozoite rabbit anti-serum (0.1%), and using fluorescein-conjugated goat anti-rabbit antibody (1%). Data are expressed as mean parasite count/field when 16 fields counted at 10× magnification “s.d. of the mean” (FIG. 6).

[4] = test system: T. gondii tachyzoites (RH strain); assay: T. gondii growth inhibition in HFF monolayers, tritiated uracil uptake; assay type: cell-based, Toxoplasma gondii
Protocol: The improvements are based on microscopic visual imspection of infected and inhibitor treated cultures, and on quantitation of nucleic acid synthesis of the parasite by measure intake of ^3H uracil onto the parasite's nucleic acid. Uracil is not utilized by mammalian cells. […] Only the RH strain tachyzoites, cultured for up to 72 hours, had been used in previously reported assays. The use of Me49, Ptg, and R5 mutant are unique aspects of the methods used in these assays in this invention.
In these assays toxicity of a candidate inhibitor was assessed by its ability to prevent growth of human foreskin fibroblasts (HFF) after 4 days and after 8 days as measured by tritiated thymidine uptake and microscopic evaluation. Confluent monolayers of HFF were infected with tachyzoites and bradyzoites. Inhibitor was added one hour later. Non-toxic doses were used in parasite growth inhibition assays. Parasite growth was measured by ability to incorporate tritiated uracil during the last 18 hours of culture.
First the toxicity of gabaculine was assessed by its ability to prevent growth of human foreskin fibroblasts (HFF) as measured by ^3H-thymidine uptake and microscopic evaluation. Non-toxic doses were used in parasite growth inhibition assays. in vitro parasite growth inhibition assays included confluent monolayers of HFF infected with tachyzoites (RH) or mutant Me49 (R5). Gabaculine was added 1 hour later. Parasite growth was measured by the ability to incorporate 3H-uracil during the last 18 hours of culture. In addition, parasite growth was evaluated microscopically in Giemsa stained slides.
Confluent monolayers of HFF cells, grown in 96-well plates are infected with T. gondii tachyzoites of the RH strain and serial dilutions of anti-microbial compound are applied 1 hour later. T. gondii growth is assessed in these cultures by their ability to incorporate tritiated uracil (2.5 μCi/well) added during the last 18 hours of culture. After harvesting cells with an automatic cell harvester, uracil incorporation is measured by liquid scintillation.

[5] = test system: T. gondii tachyzoites; assay: TSA-DCA experiments: T. gondii growth in fibroblasts (3H uracil uptake, visual appearance); assay type: cell-based, Toxoplasma gondii
Protocol: (§1) Effects of inhibitors of T. gondii in vitro were assessed after 1, 4 or 5 days in tissue culture using fibroblasts infected with […] tachyzoites of T. gondii. Effects in the fibroblasts were scored. Compounds used were TSA-DCA, TSA-Na+, and DCA at various concentrations ranging up to 1 mM. Uptake of ^3H uracil (utilized by T. gondii but not by mammalian cells), and visual appearance of T. gondii in these cells were used to assess parasite growth. Effect of compounds on host cells was studied by microscopic examination and by measuring uptake of tritiated thymidine utilizing a non-confluent monolayer of fibroblasts.
(§2) The results in table 5 show the greatest inhibitory effect of TSA-DCA and some effect of DCA at a higher concentration. […] “T50” is the concentration at which 50% of the cells were killed (T=toxic) and so forth. […] Analysis was uptake of H3 thymidine. Confirmation was by visual inspection of microscope slides (e.g. FIGS. 15 A-D).

[6] = test system: fibroblasts; assay: TSA-DCA experiments: effect on host cells (tritiated thymidine uptake, non-confluent fibroblasts); assay type: cell-based, human
Protocol: as §1, §2

[7] = test system: T. gondii; assay: T. gondii infection in mice: manifestations, parasitemia, brain cysts; parameters: species or system Toxoplasma gondii
From the text: Cyst numbers present in a suspension of brain are enumerated, or cyst numbers in formalin fixed paraffin embedded sections are quantitated.
In this competitive PCR method the T. gondii B1 gene is amplified by PCR in the presence of a construct which produces a product slightly smaller than the wild type B1 gene. The amount of construct can be quantitated to semiquantitate the amount of the competing wild type gene.
A method to measure the amount of parasitemia in mouse peripheral blood has been developed. Briefly, the target for PCR amplification is the 35 fold repetitive B1 gene of T. gondii and the amplification was performed using primers previously reported. […] Competitive PCR was performed by spiking individual reactions (containing equal amounts of genomic DNA) with a dilution of the internal standard. Since this internal control contains the same primer template sequences, it competes with the B1 gene of T. gondii for primer binding and amplification. The sensitivity of the PCR reaction in each sample can be monitored. Following competitive PCR, the PCR products are distinguished by size and the amount of products generated by the target and internal standard can be compared on a gel. The amount of competitor DNA yielding equal amounts of products gives the initial amount of target gene.

[8] = W2 clone (first value of each pair)
[9] = D6 clone (second value of each pair)
[10] = exp. 5/15, day 4, range 12-100 (200) uM, no visual
[11] = exp. 5/29, day 4, range 125-1000 (2000) uM, no visual
[12] = exp. 8/23, day 1, range 250-2000 uM
[13] = W2 clone (first value of each pair), read-out: Concentrations of other compounds that inhibited these clones in this assay
[14] = D6 clone (second value of each pair), read-out: Concentrations of other compounds that inhibited these clones in this assay

`O=C(O)CC[N+](=O)[O-]` [3-NPA, 3-Nitropropionic acid] was tested. Which IC50 ([1]; W2) did it give?
The IC50 was 3.3 µg/mL (≈ 27.7 µM).

And the IC90 ([1]; W2)?
The IC90 was 4.61 µg/mL (≈ 38.7 µM).

And the IC50 ([2]; D6)?
Its IC50 is 2820 ng/mL (≈ 23.7 µM).

What about the IC90 ([2]; D6) of the same molecule?
Its IC90 is 2.82 µg/mL (≈ 23.7 µM).

And the “inhibition of C. parvum” value [3]?
Its value is “inhibited”.

And the “restriction of CPM (tritiated uracil incorporation)” value ([4]; 3-NPA 0.006 mg ml, 4-day assay, medium about 30,000 CPM)?
Its value is “around 60%”.

Which IC50 ([1]; W2) does the source give for `Oc1cccc2cccnc12` [8-OH-quinoline, 8-hydroxyquinoline] here?
The IC50 was 1.63 µg/mL (≈ 11.2 µM).

And the IC90 ([1]; W2)?
The IC90 was 4.52 µg/mL (≈ 31.1 µM).

And the IC50 ([2]; D6)?
Its IC50 is 1200 ng/mL (≈ 8.29 µM).

And the IC90 ([2]; D6)?
Its IC90 is 1.88 µg/mL (≈ 13 µM).

And the “approximate 95% Cl count (mean parasite count per field)” value ([3]; 8-OH-quinoline 0.1 μg/ml, media alone ~1800)?
The value was ~1300 count/field.

What about the “approximate 95% Cl count (mean parasite count per field)” value ([3]; 8-OH-quinoline 1 μg/ml, media alone ~1800) of the same molecule?
The value was ~1100 count/field.

And the “approximate 95% Cl count (mean parasite count per field)” value ([3]; 8-OH-quinoline 10 μg/ml, media alone ~1800)?
Its value is ~900 count/field.

And the “approximate 95% Cl count (mean parasite count per field)” value ([3]; 8-OH-quinoline 100 μg/ml, media alone ~1800)?
The value was ~300 count/field.

And the “effect against T. gondii” value [4]?
The value was “effective against T. gondii”.

How did the “Concentrations of other compounds that inhibited these clones in this assay” value [1, 8] turn out when `O=C1C(O)=C([C@H]2CC[C@H](c3ccc(Cl)cc3)CC2)C(=O)c2ccccc21` [Atovaquovone] was run?
Its value is 0.13 ng/mL.

What about the “Concentrations of other compounds that inhibited these clones in this assay” value [2, 9] of the same molecule?
The value was 0.12 ng/mL.

For `CCN(CC)CCCC(C)Nc1ccnc2cc(Cl)ccc12` (stereo not drawn) [Chloroquin], which “Concentrations of other compounds that inhibited these clones in this assay” value [1, 8] is on record?
Its value is 40.86 ng/mL.

What about the “Concentrations of other compounds that inhibited these clones in this assay” value [2, 9] of the same molecule?
The value was 2.88 ng/mL.

How did the IC50 ([5]; Toxoplasma gondii, Fibroblast, 24 h) turn out when `C1CCC(NC2CCCCC2)CC1` [DCA, dicyclohexylamine] was run?
Its IC50 is 500 µM.

And the IC75 ([5]; day 1 of culture)?
Its IC75 is 1000 µM.

And the “IC7 5-80” value [5, 10]?
Its value is “none”.

What about the IC50 [5, 10] of the same molecule?
Its IC50 is “none”.

What about the “IC7 5-80” value [5, 11] of the same molecule?
The value was “none”.

What about the IC50 [5, 11] of the same molecule?
Its IC50 is “none”.

What about the “IC7 5-80” value [5, 12] of the same molecule?
Its value is 250 to 500 µM.

What about the “IC7 5-80” value ([5]; exp. 9/8, day 1, range 125-1000 uM) of the same molecule?
Its value is 1000 µM.

What about the T50 [6, 10] of the same molecule?
The T50 was 50 µM.

What about the T90 [6, 10] of the same molecule?
The T90 was “none”.

And the T50 [6, 11]?
Its T50 is “none”.

And the T90 [6, 11]?
Its T90 is 2000 µM.

And the T50 [6, 12]?
Its T50 is 1000 µM.

And the T90 [6, 12]?
The T90 was “none”.

For `CCCCN(CCCC)CCC(O)c1cc2c(Cl)cc(Cl)cc2c2cc(C(F)(F)F)ccc12` (stereo not drawn) [HAL], which “Concentrations of other compounds that inhibited these clones in this assay” value [1, 8] is on record?
Its value is 0.33 ng/mL.

And the “Concentrations of other compounds that inhibited these clones in this assay” value [2, 9]?
Its value is 0.51 ng/mL.

`NC[C@@H]1O[C@H](O[C@H]2[C@@H](O)[C@H](O[C@@H]3[C@@H](O)[C@H](N)C[C@H](N)[C@H]3O[C@H]3O[C@H](CO)[C@@H](O)[C@H](O)[C@H]3N)O[C@@H]2CO)[C@H](N)[C@@H](O)[C@@H]1O` [PRM] was tested. Which “approximate 95% Cl count (mean parasite count per field)” value ([3]; paromomycin with ethanol (positive control), media and ethanol ~1200) did it give?
Its value is ~100 count/field.

What about the “approximate 95% Cl count (mean parasite count per field)” value ([3]; paromomycin without ethanol (positive control), media alone ~1800) of the same molecule?
The value was ~200 count/field.

What does the source list for `CCc1nc(N)nc(N)c1-c1ccc(Cl)cc1` [Pyrimethamine]?
IC50 [1, 13]: 0.0821 µg/mL (≈ 0.33 µM); IC50 [2, 14]: 0.05 ng/mL (≈ 0.000201 µM)

`C=C[C@H]1C[N@@]2CC[C@H]1C[C@H]2[C@H](O)c1ccnc2ccc(OC)cc12` [Quinine] was tested. Which IC50 [1, 13] did it give?
Its IC50 is 0.0386 µg/mL (≈ 0.119 µM).

What about the IC50 [2, 14] of the same molecule?
Its IC50 is 4.41 ng/mL (≈ 0.0136 µM).

Which “approximate 95% Cl count (mean parasite count per field)” value ([3]; SHAM 0.1 μg/ml, 0.2% ETOH, media and ethanol ~1200) does the source give for `O=C(NO)c1ccccc1O` [SHAM, Salicylhydroxamic acid] here?
Its value is ~1200 count/field.

And the “approximate 95% Cl count (mean parasite count per field)” value ([3]; SHAM 1 μg/ml, 0.2% ETOH, media and ethanol ~1200)?
Its value is ~1100 count/field.

And the “approximate 95% Cl count (mean parasite count per field)” value ([3]; SHAM 10 μg/ml, 0.2% ETOH, media and ethanol ~1200)?
The value was ~1100 count/field.

What about the “approximate 95% Cl count (mean parasite count per field)” value ([3]; SHAM 100 μg/ml, 0.2% ETOH, media and ethanol ~1200) of the same molecule?
Its value is ~400 count/field.

What about the “effect against T. gondii” value [4] of the same molecule?
Its value is “effective against T. gondii”.

What about the “restriction of CPM (tritiated uracil incorporation)” value ([4]; SHAM 0.16 μg/ml, 4 day assay, medium around 54,000 CPM) of the same molecule?
The value was “around 50%”.

What about the “counts (tritiated uracil incorporation)” value ([4]; SHAM 0.78 μg/ml, 4 days, medium around 54,000, no RH around 1,000 CPM) of the same molecule?
Its value is “about 8,000 CPM”.

And the “parasitemia and number of brain cysts in vivo” value [7]?
The value was “affects parasitemia and number of brain cysts”.

With `Nc1ccc(S(=O)(=O)Nc2ncccn2)cc1` [Sulfadiazine] as the molecule, how does the “reduction of growth of T. gondii” value ([4]; sulphadiazine 1.56 μmg/ml, 4 days, medium about 36,000 CPM) read?
The value was “about 60%”.

What about the “manifestations of infection in vivo” value [7] of the same molecule?
Its value is “reduced manifestations of infection”.
